In patent US20250034216A1, “STEREOSELECTIVE COVALENT LIGANDS FOR ONCOGENIC AND IMMUNOLOGICAL PROTEINS” (The Scripps Research Institute, priority 2021, published 2025):

Tests used:
Test in all cases: IA-DTB cysteine engagement
Type in all cases: binding
[1] = target: T1, PRXL2A_C85 (Homo sapiens, UniProt Q9BRX8); details: 22Rv1 cells, relative to DMSO; for % engagement PRXL2A_85: 5 μM probe, 1 h (FIG. 5B); for % engagement PRXL2A_C85: 20 μM probe, 1 h
T1 construct: endogenous in cells; host or cells: 22Rv1
T1 sequence (Q9BRX8 1-229): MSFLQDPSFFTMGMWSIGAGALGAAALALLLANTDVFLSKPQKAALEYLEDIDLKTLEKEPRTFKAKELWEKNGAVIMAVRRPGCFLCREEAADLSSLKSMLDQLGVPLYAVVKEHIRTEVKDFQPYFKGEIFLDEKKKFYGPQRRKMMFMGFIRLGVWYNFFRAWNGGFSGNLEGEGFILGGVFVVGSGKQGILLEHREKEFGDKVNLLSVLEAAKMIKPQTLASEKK
Method in brief: (§1)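 Read-out is TMT-based cysteine engagement, expressed as each reporter ion intensity divided by the average of the DMSO channels. Before that, probe-treated cell lysates were capped with IA-DTB, digested, enriched on streptavidin and TMT-tagged. PSMs with DMSO summed intensity <10,000 or DMSO CV >0.5 were excluded.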

[2] = target: T2, PLPPR2_C207 (Homo sapiens, UniProt Q96GM1); details: 22Rv1 cells, 20 μM probe, 1 h, relative to DMSO
T2 construct: endogenous in cells; host or cells: 22Rv1
T2 sequence (Q96GM1 1-343): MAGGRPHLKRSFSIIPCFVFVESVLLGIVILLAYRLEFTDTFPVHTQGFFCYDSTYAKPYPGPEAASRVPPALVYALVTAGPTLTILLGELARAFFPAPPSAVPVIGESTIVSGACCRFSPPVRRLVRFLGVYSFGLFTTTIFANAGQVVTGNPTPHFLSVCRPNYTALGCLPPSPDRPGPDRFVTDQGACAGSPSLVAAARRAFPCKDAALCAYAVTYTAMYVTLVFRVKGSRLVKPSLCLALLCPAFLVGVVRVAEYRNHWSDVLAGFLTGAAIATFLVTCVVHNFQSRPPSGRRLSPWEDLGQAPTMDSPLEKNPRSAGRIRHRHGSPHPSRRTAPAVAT
Method in brief: as §1

[3] = target: T3, RAB40B_C77 (Homo sapiens, UniProt Q12829); details: 22Rv1 cells, 20 μM probe, 1 h, relative to DMSO
T3 construct: endogenous in cells; host or cells: 22Rv1
T3 sequence (Q12829 1-278): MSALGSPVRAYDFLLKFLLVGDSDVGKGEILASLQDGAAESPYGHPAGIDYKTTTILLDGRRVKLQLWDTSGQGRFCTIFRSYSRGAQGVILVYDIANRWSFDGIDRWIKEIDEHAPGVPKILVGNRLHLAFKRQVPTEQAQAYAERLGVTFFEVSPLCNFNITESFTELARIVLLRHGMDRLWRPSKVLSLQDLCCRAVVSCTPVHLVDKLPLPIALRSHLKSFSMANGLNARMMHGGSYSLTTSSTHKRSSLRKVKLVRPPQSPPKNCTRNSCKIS
Method in brief: as §1

[4] = target: T4, CENPC_C291 (Homo sapiens, UniProt Q03188); details: 22Rv1 cells, 20 μM probe, 1 h, relative to DMSO
T4 construct: endogenous in cells; host or cells: 22Rv1
Method in brief: as §1

[5] = target: T5, UBR5_C2094 (Homo sapiens, UniProt O95071); details: 22Rv1 cells, 20 μM probe, 1 h, relative to DMSO
T5 construct: endogenous in cells; host or cells: 22Rv1
Method in brief: as §1

[6] = target: T6, ALB_C269 (Homo sapiens, UniProt P02768); details: 22Rv1 cells, 20 μM probe, 1 h, relative to DMSO
T6 construct: endogenous in cells; host or cells: 22Rv1
Method in brief: as §1

[7] = target: T7, NCAPD2_C439 (Homo sapiens, UniProt Q15021); details: 1 h, 22Rv1 cells, 20 μM probe, relative to DMSO; for % engagement NCAPD2_C439: 60 min, 20 µM
T7 construct: endogenous in cells; host or cells: 22Rv1
Method in brief: as §1

T5 sequence (O95071 whole entry): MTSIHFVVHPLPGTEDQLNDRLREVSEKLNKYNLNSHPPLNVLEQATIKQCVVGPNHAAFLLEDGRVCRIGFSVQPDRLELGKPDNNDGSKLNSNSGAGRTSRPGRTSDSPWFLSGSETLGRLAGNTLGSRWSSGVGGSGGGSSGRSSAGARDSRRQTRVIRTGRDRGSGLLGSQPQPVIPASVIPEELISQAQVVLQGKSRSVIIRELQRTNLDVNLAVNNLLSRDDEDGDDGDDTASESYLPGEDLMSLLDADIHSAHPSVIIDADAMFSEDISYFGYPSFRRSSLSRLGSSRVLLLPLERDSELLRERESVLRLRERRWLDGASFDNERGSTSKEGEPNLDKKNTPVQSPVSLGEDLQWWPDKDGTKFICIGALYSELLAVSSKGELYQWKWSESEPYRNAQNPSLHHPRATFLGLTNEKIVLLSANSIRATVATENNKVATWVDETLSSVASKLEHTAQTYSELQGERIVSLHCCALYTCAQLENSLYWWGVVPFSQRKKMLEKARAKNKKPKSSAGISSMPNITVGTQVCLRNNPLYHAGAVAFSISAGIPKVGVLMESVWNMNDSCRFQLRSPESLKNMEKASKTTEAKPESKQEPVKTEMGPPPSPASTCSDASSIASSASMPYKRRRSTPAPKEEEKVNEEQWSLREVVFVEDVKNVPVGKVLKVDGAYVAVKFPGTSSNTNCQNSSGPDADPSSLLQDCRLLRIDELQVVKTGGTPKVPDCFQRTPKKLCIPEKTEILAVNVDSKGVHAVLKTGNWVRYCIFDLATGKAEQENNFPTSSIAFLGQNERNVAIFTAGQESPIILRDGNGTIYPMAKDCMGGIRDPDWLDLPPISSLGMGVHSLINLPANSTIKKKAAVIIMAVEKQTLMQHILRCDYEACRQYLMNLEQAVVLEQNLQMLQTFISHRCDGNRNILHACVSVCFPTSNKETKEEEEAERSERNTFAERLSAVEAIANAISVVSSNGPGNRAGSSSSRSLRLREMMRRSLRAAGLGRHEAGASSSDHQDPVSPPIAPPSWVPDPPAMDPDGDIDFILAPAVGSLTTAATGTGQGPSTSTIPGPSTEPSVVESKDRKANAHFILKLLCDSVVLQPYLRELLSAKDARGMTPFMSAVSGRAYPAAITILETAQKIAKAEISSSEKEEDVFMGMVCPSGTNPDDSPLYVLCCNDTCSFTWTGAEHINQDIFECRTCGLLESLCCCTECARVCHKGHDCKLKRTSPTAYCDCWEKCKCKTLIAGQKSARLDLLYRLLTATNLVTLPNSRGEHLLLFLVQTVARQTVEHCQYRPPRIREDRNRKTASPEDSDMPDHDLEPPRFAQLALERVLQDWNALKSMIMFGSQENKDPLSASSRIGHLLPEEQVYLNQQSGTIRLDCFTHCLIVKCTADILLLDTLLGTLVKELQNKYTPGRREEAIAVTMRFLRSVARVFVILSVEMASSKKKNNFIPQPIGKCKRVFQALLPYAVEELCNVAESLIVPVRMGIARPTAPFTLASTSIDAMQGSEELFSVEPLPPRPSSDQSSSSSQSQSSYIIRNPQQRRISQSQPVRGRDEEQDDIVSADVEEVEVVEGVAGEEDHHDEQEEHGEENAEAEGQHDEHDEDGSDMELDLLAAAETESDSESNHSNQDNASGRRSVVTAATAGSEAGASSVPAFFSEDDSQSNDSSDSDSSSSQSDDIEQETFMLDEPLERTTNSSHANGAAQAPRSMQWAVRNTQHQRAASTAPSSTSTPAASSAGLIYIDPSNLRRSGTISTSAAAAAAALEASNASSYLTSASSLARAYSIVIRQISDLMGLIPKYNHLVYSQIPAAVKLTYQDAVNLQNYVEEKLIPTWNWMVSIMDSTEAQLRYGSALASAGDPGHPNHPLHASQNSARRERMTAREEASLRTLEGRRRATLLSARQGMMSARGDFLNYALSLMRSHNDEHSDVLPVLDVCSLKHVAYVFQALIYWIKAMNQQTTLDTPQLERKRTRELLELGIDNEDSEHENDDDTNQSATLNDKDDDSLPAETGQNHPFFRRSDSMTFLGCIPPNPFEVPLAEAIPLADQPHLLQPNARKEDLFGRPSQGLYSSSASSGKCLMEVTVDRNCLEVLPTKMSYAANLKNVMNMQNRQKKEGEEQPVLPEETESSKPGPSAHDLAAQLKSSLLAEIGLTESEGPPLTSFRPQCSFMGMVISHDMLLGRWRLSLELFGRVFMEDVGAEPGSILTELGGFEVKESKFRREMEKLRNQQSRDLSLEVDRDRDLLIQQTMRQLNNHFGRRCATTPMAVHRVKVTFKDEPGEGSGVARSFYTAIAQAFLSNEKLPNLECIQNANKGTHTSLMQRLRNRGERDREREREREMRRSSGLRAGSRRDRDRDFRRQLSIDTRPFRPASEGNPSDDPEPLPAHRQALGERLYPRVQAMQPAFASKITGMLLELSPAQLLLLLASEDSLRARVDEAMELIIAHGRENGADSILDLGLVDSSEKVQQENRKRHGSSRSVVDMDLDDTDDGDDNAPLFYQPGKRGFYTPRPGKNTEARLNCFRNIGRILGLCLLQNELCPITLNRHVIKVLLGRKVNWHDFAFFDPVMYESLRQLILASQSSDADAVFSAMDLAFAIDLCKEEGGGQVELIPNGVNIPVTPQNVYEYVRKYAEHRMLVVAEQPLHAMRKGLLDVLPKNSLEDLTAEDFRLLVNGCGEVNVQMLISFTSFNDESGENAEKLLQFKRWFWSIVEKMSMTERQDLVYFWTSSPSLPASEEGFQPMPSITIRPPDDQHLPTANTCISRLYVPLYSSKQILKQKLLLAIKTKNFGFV
T6 sequence (P02768 25-609): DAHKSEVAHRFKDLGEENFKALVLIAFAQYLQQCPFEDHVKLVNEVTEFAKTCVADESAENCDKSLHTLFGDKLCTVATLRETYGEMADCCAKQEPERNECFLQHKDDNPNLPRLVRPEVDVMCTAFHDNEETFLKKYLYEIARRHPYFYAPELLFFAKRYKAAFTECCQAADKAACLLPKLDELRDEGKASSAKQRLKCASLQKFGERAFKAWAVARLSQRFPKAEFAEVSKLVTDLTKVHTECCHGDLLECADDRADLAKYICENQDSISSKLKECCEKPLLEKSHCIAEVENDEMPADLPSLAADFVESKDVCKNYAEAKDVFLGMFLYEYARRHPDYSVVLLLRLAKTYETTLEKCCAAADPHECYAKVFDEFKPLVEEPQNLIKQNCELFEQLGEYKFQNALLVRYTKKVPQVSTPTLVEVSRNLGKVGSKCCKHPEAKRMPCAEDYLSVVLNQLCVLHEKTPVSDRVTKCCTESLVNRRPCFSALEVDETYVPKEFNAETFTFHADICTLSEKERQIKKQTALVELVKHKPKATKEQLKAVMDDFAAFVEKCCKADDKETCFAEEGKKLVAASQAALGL
T4 sequence (Q03188 whole entry): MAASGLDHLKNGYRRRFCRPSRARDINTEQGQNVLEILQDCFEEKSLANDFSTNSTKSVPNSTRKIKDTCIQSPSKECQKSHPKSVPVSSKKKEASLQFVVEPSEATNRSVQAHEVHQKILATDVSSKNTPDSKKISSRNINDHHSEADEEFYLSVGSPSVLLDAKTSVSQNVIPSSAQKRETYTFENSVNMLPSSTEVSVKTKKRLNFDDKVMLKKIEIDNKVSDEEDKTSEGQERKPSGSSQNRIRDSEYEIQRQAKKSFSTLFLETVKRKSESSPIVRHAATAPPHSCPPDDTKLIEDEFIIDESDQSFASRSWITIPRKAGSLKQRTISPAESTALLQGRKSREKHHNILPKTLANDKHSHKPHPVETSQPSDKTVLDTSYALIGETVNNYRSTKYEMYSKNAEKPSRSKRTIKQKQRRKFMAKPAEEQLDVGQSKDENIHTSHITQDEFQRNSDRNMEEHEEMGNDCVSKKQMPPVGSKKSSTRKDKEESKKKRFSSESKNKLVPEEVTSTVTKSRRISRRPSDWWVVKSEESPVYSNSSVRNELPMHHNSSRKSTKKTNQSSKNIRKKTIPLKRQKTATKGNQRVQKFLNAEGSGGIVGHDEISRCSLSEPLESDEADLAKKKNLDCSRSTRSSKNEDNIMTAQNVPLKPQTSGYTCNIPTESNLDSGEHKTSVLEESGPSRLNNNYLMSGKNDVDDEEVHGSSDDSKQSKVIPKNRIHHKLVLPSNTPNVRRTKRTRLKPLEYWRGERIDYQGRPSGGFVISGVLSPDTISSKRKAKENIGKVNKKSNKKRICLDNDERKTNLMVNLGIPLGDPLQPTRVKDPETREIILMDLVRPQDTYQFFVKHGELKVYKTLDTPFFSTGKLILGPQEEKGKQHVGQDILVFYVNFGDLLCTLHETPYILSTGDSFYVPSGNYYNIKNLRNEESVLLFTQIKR

CC#CC(=O)N1C[C@H](c2ccc(Br)cc2)[C@@H]1C(=O)Nc1cccc2cccnc12 [MY-45B, (2R,3S)-3-(4-bromophenyl)-1-(but-2-ynoyl)-N-(quinolin-8-yl)azetidine-2-carboxamide]
% engagement PRXL2A_85 [1]: 86.23%

C=CC(=O)N1C[C@H](c2ccc(Br)cc2)[C@@H]1C(=O)Nc1cccc2cccnc12 [MY-1B, (2R,3S)-1-acryloyl-3-(4-bromophenyl)-N-(quinolin-8-yl)azetidine-2-carboxamide]
% engagement PLPPR2_C207 [2]: 31%
% engagement PRXL2A_85 [1]: 91.48%
% engagement PRXL2A_C85 [1]: 98.75%
% engagement RAB40B_C77 [3]: 100%
% engagement CENPC_C291 [4]: 7%
% engagement UBR5_C2094 [5]: 40.5%
% engagement ALB_C269 [6]: 47.5%
inhibition at 20 µM [7]: 20%

C=CC(=O)N1C[C@H](c2ccc(Br)cc2)[C@H]1C(=O)Nc1cccc2cccnc12 [MY-3B, (2S,3S)-1-acryloyl-3-(4-bromophenyl)-N-(quinolin-8-yl)azetidine-2-carboxamide]
% engagement PLPPR2_C207 [2]: 71%
% engagement PRXL2A_C85 [1]: 98.5%
% engagement RAB40B_C77 [3]: 12.5%
% engagement CENPC_C291 [4]: 82.5%
% engagement UBR5_C2094 [5]: 81%
% engagement ALB_C269 [6]: 79.5%
% engagement NCAPD2_C439 [7]: 80%

C=CC(=O)N1C[C@H](c2ccc(Br)cc2)[C@H]1C(=O)Nc1cccc2cccnc12 [MY-3A, (2S,3S)-1-acryloyl-3-(4-bromophenyl)-N-(quinolin-8-yl)azetidine-2-carboxamide]
% engagement PLPPR2_C207 [2]: 46.5%
% engagement PRXL2A_C85 [1]: 97.5%
% engagement RAB40B_C77 [3]: −39%
% engagement CENPC_C291 [4]: 28%
% engagement UBR5_C2094 [5]: 22.5%
% engagement ALB_C269 [6]: 86%
% engagement NCAPD2_C439 [7]: 21.5%

C=CC(=O)N1C[C@@H](c2ccc(Br)cc2)[C@H]1C(=O)Nc1cccc2cccnc12 [MY-1A, (2S,3R)-1-acryloyl-3-(4-bromophenyl)-N-(quinolin-8-yl)azetidine-2-carboxamide]
% engagement PLPPR2_C207 [2]: 30.5%
% engagement PRXL2A_C85 [1]: 92.5%
% engagement RAB40B_C77 [3]: 100%
% engagement CENPC_C291 [4]: −1.5%
% engagement UBR5_C2094 [5]: 23%
% engagement ALB_C269 [6]: 42.5%
inhibition at 20 µM [7]: 29.5%
